Test results taken from patent publication US11510886B2, “Metformin amino acid compounds and methods of using the same” (Laboratorios Silancs S.A. DE C.V., priority 2016, dated 2022).
Where two headings read alike, the source gives them in different places.

Tests used:
[1] = STZ-diabetic male rats, mean ± SD; for Absolute body weight, Day −3 (before STZ administration): baseline before STZ and before first TI/RI administration; for Absolute body weight, Day −1 / Absolute body weight, Day −2 (distribution of groups): before first TI/RI administration
blood glucose level = assay: Effect of metformin compounds on the glucokinetic profile after oral glucose overload; type: in vivo, Rat; details: for blood glucose level vs vehicle, after the oral glucose overload: 750 mg/kg for five days, glucose 3 g/kg, isolated time points 0.25-4 hours; for Blood glucose level, 0.25 h post-glucose overload / Blood glucose level, 0.5 h post-glucose overload / Blood glucose level, 2 h post-glucose overload / Blood glucose level, 6 h post-glucose overload / Blood glucose level, pre-glucose overload / Blood glucose level, 1 h post-glucose overload / Blood glucose level, 4 h post-glucose overload / Blood glucose level, 3 h post-glucose overload: rat, 750 mg/kg referred to metformin base, mean ± SD; for Blood glucose level, 0.25 h post-glucose overload / Blood glucose level, pre-glucose overload / Blood glucose level, 1 h post-glucose overload / Blood glucose level, 4 h post-glucose overload: *p<0.05 vs vehicle; for Blood glucose level, 3 h post-glucose overload: *p<0.05, **p<0.01 vs vehicle
[2] = for Body weight (g) On administration day / Body weight (g) On distribution day / Body weight (g) On first administration day: Mean ± SD; for Body weight (g) On distribution day: before dosing
[3] = rat, in vivo, po, 250 mg/kg
[4] = terms of European Pharmacopeia 7.0 section 5.11
[5] = tested on: rat model of streptozotocin-induced diabetes; assay: Blood glucose levels in rat model of streptozotocin-induced diabetes, 14 days oral; details: for Blood glucose levels before TI/RI administration, Day −3 (before STZ administration): rats, baseline before STZ and before first TI/RI administration; for Blood glucose levels before TI/RI administration, Day −3 (before STZ administration) / Blood glucose levels before TI/RI administration, Day −1: mean ± SD; for Blood glucose levels before TI/RI administration, Day −1: STZ-diabetic rats, before first TI/RI administration, n.d. = all values beyond ULOD of glucometer (600 mg/dl), § n=1, ¢ n=2
[6] = Groups L-U, 750 mg/kg, first column of this head
[7] = Groups L-U, 750 mg/kg, second column of this head

| Molecule | Absolute body weight, Day −3 (before STZ administration) [1] | Absolute body weight, Day −1 [1] | Blood glucose level, 0.25 h post-glucose overload (blood glucose level) | Blood glucose level, 0.5 h post-glucose overload (blood glucose level) | Blood glucose level, 2 h post-glucose overload (blood glucose level) | Blood glucose level, 6 h post-glucose overload (blood glucose level) | Body weight (g) On administration day ([2]; Groups B-K, 250 mg/kg) | Body weight (g) On distribution day ([2]; Groups B-K, 250 mg/kg) | Body weight (g) On distribution day ([2]; Groups L-U, 750 mg/kg) | Body weight (g) On first administration day [2, 6] | Body weight (g) On first administration day [2, 7] | AUC(0-24) [3] | Cmax [3] | Metformin base concentration in plasma, 0.5 h post-administration [3] | Metformin base concentration in plasma, 1 h post-administration [3] | Metformin base concentration in plasma, 2 h post-administration [3] | Metformin base concentration in plasma, 4 h post-administration [3] | Metformin base concentration in plasma, 8 h post-administration [3] | Metformin base concentration in plasma, 24 h post-administration [3] | Blood glucose levels before TI/RI administration, Day −3 (before STZ administration) [5] | also measured |
| --- | --- | --- | --- | --- | --- | --- | --- | --- | --- | --- | --- | --- | --- | --- | --- | --- | --- | --- | --- | --- | --- |
| CN(C)C(=N)NC(=N)N.C[C@H](N)C(=O)O [Metformin alaninate, metformin alaninate] | 232.07 ± 6.17 g | 208.00 ± 2.65 g | 90.50 ± 13.72 mg/dL | 94.75 ± 13.52 mg/dL | 87.75 ± 9.00 mg/dL | 84.00 ± 7.83 mg/dL | 202.49 ± 12.79 g | 187.52 ± 10.28 g | 186.18 ± 8.04 g | 200.80 ± 10.15 g | 195.43 ± 11.23 g | 126.09 µg·h/mL | 16400 ng/mL | 14.77 ± 3.29 µg/mL | 13.00 ± 1.39 µg/mL | 14.97 ± 3.57 µg/mL | 16.40 ± 5.23 µg/mL | 3.56 ± 1.19 µg/mL | 0.22 ± 0.08 µg/mL | 121.33 ± 6.51 mg/dL | blood glucose level vs vehicle, after the oral glucose overload (blood glucose level; Dunn's test): statistically significant decreases; Blood glucose level, pre-glucose overload (blood glucose level): 82.25 ± 7.68 mg/dL; macroscopic necropsy findings ([2]; 750 mg/kg for five days): small additional lobe; Physical form (hygroscopicity) ([4]; listed as 13. ALANINE): Hygroscopic solid; Physical form (hygroscopicity) ([4]; listed as alanine): hygroscopic; blood glucose levels 2 hours after administration on day 2 vs diabetic animals treated with vehicle ([5]; diabetic rats, 250 mg/kg as metformin base): significantly lower blood glucose levels |
| CC[C@H](C)[C@H](N)C(=O)O.CN(C)C(=N)NC(=N)N [Metformin isoleucinate, metformin isoleucinate] | 224.63 ± 9.17 g | 211.30 ± 7.51 g | – | 87.75 ± 12.97 mg/dL | 76.75 ± 11.44 mg/dL | 70.75 ± 17.04 mg/dL | 197.30 ± 10.62 g | 189.10 ± 7.62 g | 190.40 ± 7.71 g | 203.33 ± 5.11 g | 196.80 ± 11.54 g | 148.77 µg·h/mL | 21430 ng/mL | 12.53 ± 1.91 µg/mL | 14.47 ± 2.58 µg/mL | 10.05 ± 2.33 µg/mL | 21.43 ± 3.35 µg/mL | 4.94 ± 0.80 µg/mL | 0.24 ± 0.08 µg/mL | 115.33 ± 4.93 mg/dL | Absolute body weight, Day −2 (distribution of groups) [1]: 225.17 ± 10.85 g; blood glucose level vs vehicle, before the oral glucose overload (blood glucose level; 750 mg/kg (referred to metformin base) once a day for five days, Dunn's test): statistically significant decrease; blood glucose level vs vehicle, after the oral glucose overload (blood glucose level; Dunn's test): statistically significant decreases; blood glucose level vs vehicle, after the oral glucose overload (blood glucose level; Dunn's test, listed as metformin isoleucinate): statistically significant decrease; Blood glucose level, 1 h post-glucose overload (blood glucose level): 89.75 ± 19.77 mg/dL; Blood glucose level, 4 h post-glucose overload (blood glucose level): 80.50 ± 7.51 mg/dL; Physical form (hygroscopicity) ([4]; listed as 12. ISOLEUCIN): Hygroscopic solid; Physical form (hygroscopicity) ([4]; listed as isoleucine): hygroscopic |
| dimetformin aspartate | 228.17 ± 10.17 g | 205.23 ± 6.83 g | 96.00 ± 17.15 mg/dL | 98.50 ± 13.70 mg/dL | 95.25 ± 8.77 mg/dL | 89.75 ± 5.50 mg/dL | 188.42 ± 5.42 g | 186.02 ± 5.04 g | 192.05 ± 6.89 g | 207.73 ± 9.57 g | 197.30 ± 10.15 g | 122.96 µg·h/mL | 15500 ng/mL | 12.43 ± 2.05 µg/mL | 15.50 ± 4.49 µg/mL | 13.47 ± 3.13 µg/mL | 6.05 ± 0.98 µg/mL | 6.50 ± 1.57 µg/mL | 0.22 ± 0.11 µg/mL | 120.00 ± 2.65 mg/dL | Absolute body weight, Day −2 (distribution of groups) [1]: 219.53 ± 13.36 g; Blood glucose level, 1 h post-glucose overload (blood glucose level): 103.75 ± 9.29 mg/dL; Blood glucose level, 3 h post-glucose overload (blood glucose level): 92.00 ± 6.16 mg/dL; Blood glucose level, 4 h post-glucose overload (blood glucose level): 92.75 ± 4.11 mg/dL; Blood glucose level, pre-glucose overload (blood glucose level): 83.25 ± 14.89 mg/dL; Blood glucose levels before TI/RI administration, Day −1 [5]: 572.00^§ ± n.d.^§ mg/dL |
| diphenformin aspartate | – | – | – | – | – | – | – | – | – | – | – | – | – | – | – | – | – | – | – | 115.33 ± 10.02 mg/dL | – |
| metformin leucinate | 234.57 ± 1.87 g | 207.93 ± 0.99 g | 87.75 ± 31.40 mg/dL | 90.75 ± 28.16 mg/dL | 99.00 ± 2.45 mg/dL | 85.25 ± 2.22 mg/dL | 195.70 ± 9.85 g | 187.38 ± 6.74 g | 185.53 ± 12.04 g | 199.25 ± 9.43 g | 193.53 ± 11.92 g | 133.32 µg·h/mL | 15430 ng/mL | 10.21 ± 1.77 µg/mL | 15.43 ± 0.81 µg/mL | 12.30 ± 2.41 µg/mL | 12.57 ± 4.13 µg/mL | 5.88 ± 0.80 µg/mL | 0.21 ± 0.08 µg/mL | 118.33 ± 10.02 mg/dL | Absolute body weight, Day −2 (distribution of groups) [1]: 221.90 ± 6.16 g; Blood glucose level, 1 h post-glucose overload (blood glucose level): 99.50 ± 27.50 mg/dL; Blood glucose level, 3 h post-glucose overload (blood glucose level): 91.75 ± 6.99 mg/dL; Blood glucose level, 4 h post-glucose overload (blood glucose level): 89.75 ± 3.69 mg/dL; Blood glucose level, pre-glucose overload (blood glucose level): 72.25 ± 9.29 mg/dL; Physical form (hygroscopicity) [4]: Deliquescent; Blood glucose levels before TI/RI administration, Day −1 [5]: 563.00 ± 36.39 mg/dL |
| metformin threoninate | 231.13 ± 10.20 g | 207.33 ± 8.52 g | 110.33 ± 16.92 mg/dL | 102.67 ± 8.02 mg/dL | 93.67 ± 10.69 mg/dL | 89.33 ± 3.06 mg/dL | 193.13 ± 9.66 g | 186.22 ± 10.13 g | 188.55 ± 6.35 g | 202.15 ± 5.48 g | 194.20 ± 4.58 g | 107.62 µg·h/mL | 14300 ng/mL | 8.81 ± 2.00 µg/mL | 14.30 ± 1.70 µg/mL | 11.53 ± 2.61 µg/mL | 11.43 ± 1.66 µg/mL | 3.91 ± 0.33 µg/mL | 0.23 ± 0.08 µg/mL | 117.33 ± 14.05 mg/dL | Absolute body weight, Day −2 (distribution of groups) [1]: 216.43 ± 8.74 g; Blood glucose level, 1 h post-glucose overload (blood glucose level): 101.67 ± 11.85 mg/dL; Blood glucose level, 3 h post-glucose overload (blood glucose level): 91.67 ± 6.03 mg/dL; Blood glucose level, 4 h post-glucose overload (blood glucose level): 87.67 ± 2.08 mg/dL; Blood glucose level, pre-glucose overload (blood glucose level): 90.33 ± 12.34 mg/dL; mortality and clinical signs ([2]; glucokinetic groups, 750 mg/kg for five days): died during the study just after the fifth test item administration |
